According to paper PMC3160329, “Functional Dissection of the Proton Pumping Modules of Mitochondrial Complex I” (PLoS Biology, 2011):

Molecular target: T1, subcomplex nb8mΔ (Yarrowia lipolytica, UniProt Q9B6E8+Q9UUT7+Q9UUU1+Q9UUU2)
T1 construct: gene nucm; complex I subcomplex lacking 14 subunits of the PD module (incl. ND4, ND5, NB8M); about 680 kDa; C-terminal His tag on NUGM; purified, asolectin proteoliposomes; with NADH-ubiquinone oxidoreductase 75 kDa subunit; NADH-ubiquinone oxidoreductase 30 kDa subunit; NADH-ubiquinone oxidoreductase 24 kDa subunit; NADH-ubiquinone oxidoreductase 23 kDa subunit; NADH-ubiquinone oxidoreductase chain 2; NADH-ubiquinone oxidoreductase chain 3; NADH-ubiquinone oxidoreductase chain 6; NADH-ubiquinone oxidoreductase chain 4L
Test: NADH:DBQ oxidoreductase activity, NADH oxidation
Assay type: biochemical
Conditions: 100 µM DBQ, 100 µM NADH, pH 7.2, 30 °C, proteoliposomes

Q: For `CCCCCCCCCCC1=C(C)C(=O)C(OC)=C(OC)C1=O` [DBQ, decylubiquinone], which “NADH:DBQ oxidoreductase activity, NADH oxidation” value (electron acceptor) is on record?
A: The value was “addition of NADH and the ubiquinone analogue DBQ to subcomplex nb8mΔ proteoliposomes”.

Q: For `NC(=O)C1=CN([C@@H]2O[C@H](COP(=O)(O)OP(=O)(O)OC[C@H]3O[C@@H](n4cnc5c(N)ncnc54)[C@H](O)[C@@H]3O)[C@@H](O)[C@H]2O)C=CC1` [NADH], which “NADH:DBQ oxidoreductase activity, NADH oxidation” value (electron donor) is on record?
A: The value was “addition of NADH and the ubiquinone analogue DBQ to subcomplex nb8mΔ proteoliposomes”.
